In patent publication US20250276983A1, “COMPOUNDS AND METHODS FOR MODULATING HER2” (IAMBIC THERAPEUTICS, INC., priority 2022, published 2025):
Where two headings read alike, the source gives them in different places.

Columns and labels:
Type in all cases: cell-based
[1] = test system: BaF3_HER2YVMA cells; assay: Cell growth inhibition assay, BaF3_HER2YVMA; settings: BaF3_HER2YVMA cells, 3 days treatment, CellTiterGlo 2.0, read-out: HER2-YVMA IC50 (nM), cell growth inhibition
[2] = test system: BaF3_HER2WT cells; assay: Cell growth inhibition assay, BaF3_HER2WT; settings: 3 days treatment, CellTiterGlo 2.0, read-out: HER2 WT IC50 (nM), cell growth inhibition
[3] = test system: BaF3_EGFRWT cells; assay: Cell growth inhibition assay, BaF3_EGFRWT; settings: 80 ng/mL recombinant human EGF, 3 days treatment, CellTiterGlo 2.0, read-out: EGFR WT IC50 (nM), cell growth inhibition

| IC50 ([1]; 72 h) [nM] | IC50 ([2]; 72 h) [nM] | IC50 ([3]; 72 h) [nM] | SMILES | IC50 [1] [nM] | IC50 [2] [nM] | IC50 [3] [nM] |
| --- | --- | --- | --- | --- | --- | --- |
| 500 to 1500 | 200 to 500 | 1500 to 5000 | C=CC(=O)N1C[C@H]2C[C@@H]1C[C@@H]2c1ccn2ncnc(Nc3ccc(Oc4ccn5ncnc5c4)c(C)c3)c12 [Example 141, 1-[(1S,4S,5S)-5-{4-[(3-methyl-4-{[1,2,4]triazolo[1,5-a]pyridin-7-yloxy}phenyl)amino]pyrrolo[2,1-f][1,2,4]triazin-5-yl}-2-azabicyclo[2.2.1]heptan-2-yl]prop-2-en-1-one] |  |  |  |
| < 200 | < 200 | 200 to 500 | C=CC(=O)N1CCCC(c2ccn3ncnc(Nc4ccc(Oc5ccn6ncnc6c5)c(C)c4)c23)CC1 (stereo not drawn) [Example 9, 1-(4-(4-((4-([1,2,4]triazolo[1,5-a]pyridin-7-yloxy)-3-methylphenyl)amino)pyrrolo[2,1-f][1,2,4]triazin-5-yl)azepan-1-yl)prop-2-en-1-one] |  |  |  |
| < 200 | < 200 | 1500 to 5000 | Cc1cc(Nc2ncnn3ccc(C4CN(C(=O)/C=C/CN5CC(F)C5)C4)c23)ccc1Oc1ccn2ncnc2c1 [Example 38, (E)-1-(3-(4-((4-([1,2,4]triazolo[1,5-a]pyridin-7-yloxy)-3-methylphenyl)amino)pyrrolo[2,1-f][1,2,4]triazin-5-yl)azetidin-1-yl)-4-(3-fluoroazetidin-1-yl)but-2-en-1-one] |  |  |  |
| < 200 | < 200 | 1500 to 5000 | C=CC(=O)N1CCCC(c2ccn3ncnc(Nc4ccc(Oc5ccn6ncnc6c5)c(C)c4)c23)CC1 (single isomer, unassigned) [Examples 111 and 112, first eluting isomer, 1-(4-(4-((4-([1,2,4]triazolo[1,5-a]pyridin-7-yloxy)-3-methylphenyl)amino)pyrrolo-[2,1-f][1,2,4]triazin-5-yl)azepan-1-yl)prop-2-en-1-one] |  |  |  |
| 1500 to 5000 | 1500 to 5000 | 1500 to 5000 | Cc1cc(Nc2ncnn3ccc(C4CCN(C(=O)/C=C/C(=O)O)CC4)c23)ccc1Oc1ccn2ncnc2c1 [Example 142, (E)-4-(4-(4-((4-([1,2,4]triazolo[1,5-a]pyridin-7-yloxy)-3-methylphenyl)amino)pyrrolo[2,1-f][1,2,4]triazin-5-yl)piperidin-1-yl)-4-oxobut-2-enoic acid] |  |  |  |
| < 200 | < 200 | 1500 to 5000 | C=CC(=O)N1CC2(CC(c3ccn4ncnc(Nc5ccc(Oc6ccn7ncnc7c6)c(C)c5)c34)C2)C1 [Example 17, 1-(6-(4-((4-([1,2,4]triazolo[1,5-a]pyridin-7-yloxy)-3-methylphenyl)amino)pyrrolo[2,1-f][1,2,4]triazin-5-yl)-2-azaspiro[3.3]heptan-2-yl)prop-2-en-1-one] |  |  |  |

More lines, now with the values behind:

| SMILES | IC50 ([1]; 72 h) [nM] | IC50 ([2]; 72 h) [nM] | IC50 ([3]; 72 h) [nM] | IC50 [1] [nM] | IC50 [2] [nM] | IC50 [3] [nM] |
| --- | --- | --- | --- | --- | --- | --- |
| C=CC(=O)N1CC2CCC1CC2c1ccn2ncnc(Nc3ccc(Oc4ccn5ncnc5c4)c(C)c3)c12 (single isomer, unassigned) [Examples 139 and 140, second eluting isomer, 1-(5-(4-((4-([1,2,4]triazolo[1,5-a]pyridin-7-yloxy)-3-methylphenyl)amino)pyrrolo[2,1-f][1,2,4]triazin-5-yl)-2-azabicyclo[2.2.2]octan-2-yl)prop-2-en-1-one] |  |  |  | 1500 to 5000 | 500 to 1500 | 1500 to 5000 |
| Cc1cc(Nc2ncnn3ccc(C4CN(C(=O)/C=C/C5CCCN5C)C4)c23)ccc1Oc1ccn2ncnc2c1 (single isomer, unassigned) [Examples 171 and 172, second eluting isomer, (E)-1-(3-(4-((4-([1,2,4]triazolo[1,5-a]pyridin-7-yloxy)-3-methylphenyl)amino)pyrrolo[2,1-f][1,2,4]triazin-5-yl)azetidin-1-yl)-3-(1-methylpyrrolidin-2-yl)prop-2-en-1-one] | < 200 | < 200 | 1500 to 5000 |  |  |  |
| CN(C)C/C=C/C(=O)N1CC(c2ccn3ncnc(Nc4cnc(Oc5cccc(C(F)(F)F)c5)c(Cl)c4)c23)C1 [Example 90, (E)-1-(3-(4-((5-chloro-6-(3-(trifluoromethyl)phenoxy)pyridin-3-yl)amino)pyrrolo[2,1-f][1,2,4]triazin-5-yl)azetidin-1-yl)-4-(dimethylamino)but-2-en-1-one] | 1500 to 5000 | 1500 to 5000 | 1500 to 5000 |  |  |  |
| Cc1cc(Nc2ncnn3ccc(C4CC5CCC4CN5C(=O)/C=C/CN(C)C)c23)ccc1Oc1ccn2ncnc2c1 (single isomer, unassigned) [Examples 137 and 138, second eluting isomer, (E)-1-(5-(4-((4-([1,2,4]triazolo[1,5-a]pyridin-7-yloxy)-3-methylphenyl)amino)pyrrolo[2,1-f][1,2,4]triazin-5-yl)-2-azabicyclo[2.2.2]octan-2-yl)-4-(dimethylamino)but-2-en-1-one] | 1500 to 5000 | 500 to 1500 | 1500 to 5000 |  |  |  |
| C=CC(=O)NC1CCN(C(=O)c2ccn3ncnc(Nc4ccc(Oc5ccn6ncnc6c5)c(C)c4)c23)C1 (stereo not drawn) [Example 4, N-(1-(4-((4-([1,2,4]triazolo[1,5-a]pyridin-7-yloxy)-3-methylphenyl)amino)pyrrolo[2,1-f][1,2,4]triazine-5-carbonyl)pyrrolidin-3-yl)acrylamide] | < 200 | < 200 | 1500 to 5000 |  |  |  |
| Cc1cc(Nc2ncnn3ccc(C4CN(C(=O)/C=C/C56CCCN5CCC6)C4)c23)ccc1Oc1ccn2ncnc2c1 [Example 159, (E)-1-(3-(4-((4-([1,2,4]triazolo[1,5-a]pyridin-7-yloxy)-3-methylphenyl)amino)pyrrolo[2,1-f][1,2,4]triazin-5-yl)azetidin-1-yl)-3-(tetrahydro-1H-pyrrolizin-7a(5H)-yl)prop-2-en-1-one] | < 200 | < 200 | 1500 to 5000 |  |  |  |
| Cc1cc(Nc2ncnn3ccc(N4C5CCC4CN(C(=O)/C=C/CN(C)C)C5)c23)ccc1Oc1ccn2ncnc2c1 [Example 45, (E)-1-(8-(4-((4-([1,2,4]triazolo[1,5-a]pyridin-7-yloxy)-3-methylphenyl)amino)pyrrolo[2,1-f][1,2,4]triazin-5-yl)-3,8-diazabicyclo[3.2.1]octan-3-yl)-4-(dimethylamino)but-2-en-1-one] | < 200 | < 200 | 1500 to 5000 |  |  |  |
| Cc1cc(Nc2ncnn3ccc(C4CN(C(=O)/C=C/CN5CCOCC5)C4)c23)ccc1Oc1ccn2ncnc2c1 [Example 37, (E)-1-(3-(4-((4-([1,2,4]triazolo[1,5-a]pyridin-7-yloxy)-3-methylphenyl)amino)pyrrolo[2,1-f][1,2,4]triazin-5-yl)azetidin-1-yl)-4-morpholinobut-2-en-1-one] | < 200 | < 200 | 1500 to 5000 |  |  |  |
| C=C(CN(C)C)C(=O)N1C2CCC1CC(c1ccn3ncnc(Nc4ccc(Oc5ccn6ncnc6c5)c(C)c4)c13)C2 (single isomer, unassigned) [Examples 126 and 127, second eluting isomer, 1-(3-(4-((4-([1,2,4]triazolo[1,5-a]pyridin-7-yloxy)-3-methylphenyl)amino)pyrrolo[2,1-f][1,2,4]triazin-5-yl)-8-azabicyclo[3.2.1]octan-8-yl)-2-((dimethylamino)methyl)prop-2-en-1-one] |  |  |  | 500 to 1500 | < 200 | 1500 to 5000 |
| CO[C@@H]1CN(C/C=C/C(=O)N2CC(c3ccn4ncnc(Nc5ccc(Oc6ccc7c(c6)ncn7C)c(C)c5)c34)C2)C[C@H]1OC [Example 166, (E)-4-((3R,4R)-3,4-dimethoxypyrrolidin-1-yl)-1-(3-(4-((3-methyl-4-((1-methyl-1H-benzo[d]imidazol-5-yl)oxy)phenyl)amino)pyrrolo[2,1-f][1,2,4]triazin-5-yl)azetidin-1-yl)but-2-en-1-one] | < 200 | < 200 | 1500 to 5000 |  |  |  |
| Cc1cc(Nc2ncnn3cnc(C4CCN(C(=O)/C=C/CN(C)C)CC4)c23)ccc1Oc1ccn2ncnc2c1 [Example 88, (E)-1-(4-(4-((4-([1,2,4]triazolo[1,5-a]pyridin-7-yloxy)-3-methylphenyl)amino)imidazo[5,1-f][1,2,4]triazin-5-yl)piperidin-1-yl)-4-(dimethylamino)but-2-en-1-one] | 1500 to 5000 | 500 to 1500 | 1500 to 5000 |  |  |  |
| Cc1cc(Nc2ncnn3ccc(N4CC(NC(=O)/C=C/CN5CCOCC5)C4)c23)ccc1Oc1ccn2ncnc2c1 [Example 81, (E)-N-(1-(4-((4-([1,2,4]triazolo[1,5-a]pyridin-7-yloxy)-3-methylphenyl)amino)pyrrolo[2,1-f][1,2,4]triazin-5-yl)azetidin-3-yl)-4-morpholinobut-2-enamide] | 1500 to 5000 | 200 to 500 | 1500 to 5000 |  |  |  |
| COC1CCN(C/C=C/C(=O)N2CCC(c3ccn4ncnc(Nc5ccc(Oc6ccn7ncnc7c6)c(C)c5)c34)CC2)C1 (stereo not drawn) [Example 118, E-1-(4-(4-((4-([1,2,4]triazolo[1,5-a]-207-midazol-7-yloxy)-3-methylphenyl)amino)pyrrolo[2,1-f][1,2,4]triazin-5-yl)piperidin-1-yl)-4-(3-methoxypyrrolidin-1-yl)but-2-en-1-one] | < 200 | < 200 | 1500 to 5000 |  |  |  |
| COC1CN(C/C=C/C(=O)N2CCC(c3ccn4ncnc(Nc5ccc(Oc6ccn7ncnc7c6)c(C)c5)c34)CC2)C1 [Example 117, (E)-1-(4-(4-((4-([1,2,4]triazolo[1,5-a]-207-midazol-7-yloxy)-3-methylphenyl)amino)pyrrolo[2,1-f][1,2,4]triazin-5-yl)piperidin-1-yl)-4-(3-methoxyazetidin-1-yl)but-2-en-1-one] | < 200 | < 200 | 1500 to 5000 |  |  |  |
